From patent US20180271470A1, “METHODS FOR QUANTIFYING PANCREATIC BETA CELL FUNCTION AND MASS PROPERTIES WITH RADIOMANGANESE POSITRON EMISSION TOMOGRAPHY” (Wisconsin Alumni Research Foundation, priority 2017, published 2018)
Where “and” joins values, the source holds several entries; their conditions need not be identical. Equal entries are not always repeated.

What was measured:
[1] = molecular target: type 2 vesicular transporter (VMAT2) (Homo sapiens, UniProt Q05940); details: cited from earlier work
[2] = dogs, previous studies; cited from earlier work
[3] = primate models; cited from earlier work
[4] = ^52Mn^2+ PET and biodistribution in STZ type-1 diabetes model; type: in vivo, ICR mice
Description: Type 1 diabetes was induced in female ICR mice via a single IP injection of 180 mg/kg streptozotocin (STZ; MP Biomedical, LLC, Santa Ana, Calif.), a toxin that selectively destroys pancreatic beta cell. The injectable STZ solution (12.5 mg/mL) was prepared freshly in phosphate buffered saline (PBS). The weight of each mouse was measured daily, and blood glucose levels were recorded every other day with a glucometer (TRUEresult, Trividia Health Inc., Fort Lauderdale, Fla.) using blood samples collected from the tail vein. Mice were considered diabetic after two consecutive blood glucose readings above 250 mg/dL and were used for PET imaging studies one week after the injection of STZ. To evaluate ^52Mn^2+ pancreatic uptake on diabetic mice, 0.74 MBq (20 μCi) of activity were administered IV and static PET images recorded one hour after administration of the tracer. Ex vivo biodistribution was carried out following PET acquisition.

[5] = Static PET imaging of ^52Mn^2+ biodistribution in normal mice; type: in vivo, ICR mice; details: healthy mice, IV, peaked within minutes following administration
[6] = Ex vivo ^52Mn^2+ biodistribution by gamma counting after last PET scan; type: in vivo; details: ICR mice, ex vivo gamma counting 13 days after injection
Description: Ex vivo biodistribution studies were performed in all groups of mice in order to validate the results of PET imaging and obtain a more complete biodistribution profile of ^52Mn^2+. Following the last imaging time point, mice were euthanized by C02 asphyxiation and the organs of interest were removed, wet-weighed, and counted on an automated gamma-counter (Wizard 2480, Perkin Elmer). The tissue uptake of ^52Mn^2+ was reported as SUV (mean±SD).

[7] = Dynamic PET of ^52Mn^2+ (rapid IV bolus or 30 min IV infusion) under isoflurane; type: in vivo, mice
Description: To acquire dynamic PET scans, mice were anesthetized with isoflurane and the lateral tail vein was catheterized. Simultaneous with the administration of approximately 1.7 MBq (50 μCi) of ^52Mn^2+ as a fast IV bolus, one-hour scans were recorded and list-mode files were binned into 46 frames (12×5 s, 6×10 s, 6×30 s, 10×60 s, 6×150 s, 6×300 s) and the images reconstructed using a non-scatter-corrected OSEM3D/MAP algorithm. In another study, 1.7 MBq (50 μCi) of ^52Mn^2 was continuously infused with a syringe pump (Kd Scientific, Model 780100) over a period of 30 min, starting at the beginning of the PET scan. List-mode files were framed into 30×2 min frames and reconstructed using the above-mentioned algorithm.

[8] = Static PET imaging of ^52Mn^2+ biodistribution in normal mice; type: in vivo, ICR mice
Description: The acquisition of PET images was performed in the Inveon μPET/μCT scanner (Siemens Preclinical Solutions, Knoxville, Tenn.). To study the long-term biodistribution and clearance of ^52Mn^2+ in the mouse body, approximately 3.7 MBq (100 μCi) of ^52Mn^2+ was injected intravenously (IV) in female ICR mice. […] Before each scan, mice were anesthetized with isoflurane (4% induction; 1% maintenance) and placed in the scanner in prone position. 30×10^6-40×10^6 coincidence events per mouse static PET scans were acquired (time window, 3.432 ns; energy window, 350-650 keV) and the PET images were reconstructed in Inveon Acquisition Workplace (Siemens Preclinical Solutions, Knoxville, Tenn.) workstation using a non-scatter-corrected three-dimensional Ordered Subset Expectation […]/Maximum a Posteriori (OSEM3D/MAP) algorithm. Region-of-interest (ROI) analysis was performed after organs were manually delineated on the PET images. Tissue uptake values were reported as standardized uptake value (SUV), which is normalized to whole body radiomanganese concentration.

[9] = tested on: isolated ob/ob mouse islets; assay: Uptake of ^52Mn^2+ in isolated islets under stimulatory or inhibitory conditions; type: cell-based; details: low glucose (1 mM), 370 kBq ^52Mn^2+
Description: Mouse pancreatic islets were isolated by collagenase digestion. Briefly, mice were placed under shallow anesthesia and sacrificed via cervical dislocation. The mouse common bile duct was cannulized and 3-5 mL of an ice-cold solution containing type XI collagenase (0.5 mg/mL; Sigma Aldrich, St. Louis, Mo.) and bovine serum albumin (BSA; 0.2 mg/mL; Sigma Aldrich, St. Louis, Mo.) in Hank's balanced salt solution (HBSS; Invitrogen, Carlsbad, Calif.) was injected into the mouse pancreas. After inflation, the pancreas was removed, placed in a glass vial containing 5 mL of the collagenase solution, and incubated in a shaking water bath at 37° C. Samples were digested for approximately 30 min after which the digests were centrifuged at 50×g for 2 min and islet pellets were washed three times with 30 mL of an ice-cold BSA (0.2 mg/mL) in HBSS solution. The pellet was resuspended and islets handpicked into 35 mm petri dishes. Following isolation, islets were placed in RPMI1640 media supplemented with penicillin (100 U/mL; Invitrogen), streptomycin (100 μg/mL; Invitrogen), and FBS [10% (wt/vol); Sigma] and incubated overnight at 37° C. in a 5% CO2 atmosphere.
The uptake of ^52Mn^2+ by murine islets of Langerhans was determined under several stimulatory or inhibitory conditions. Batches of 50 islets were transferred into 0.45 μm filtered bottom 1 mL centrifuge vials (Thermo Fisher Scientific, Grand Island, N.Y.), 500 μL of Krebs-Ringer buffer (KRB: 118 mM NaCl, 5.4 mM KCl, 2.4 mM CaCl, 1.2 mM MgSO4, 1 mM […], 20 mM HEPES; pH 7.4) containing a low glucose concentration (1 mM D-glucose) were added and the islets incubated for 30 min at 37° C. After removing the supernatant following centrifugation at 50×g for 5 min, 250 μL of KRB containing glucose, diazoxide (50 μM; Tocris Biosciences, Bristol, UK), or tolbutamide (250 μM; Selleckchem, Houston, Tex.) were added, and the vials were spiked with 370 kBq (10 μCi) of ^52Mn^2+. After 15 min of incubation, the solutions were filtered and islets were washed three times with KRB. The ^52Mn^2+ radioactivity in the islet pellets were measured in an automated gamma counter (Perkin Elmer).

[10] = ^52Mn^2+ PET in pre-type 2 diabetic ob/ob and lean C57BL/6J mice; type: in vivo
Text: Given the altered glucose metabolism in obese mice, we compared the pancreatic uptake of ^52Mn^2+ in lean (wild-type) and obese (ob/ob) mice on the C57BL/6J background. For PET imaging, 0.74 MBq (20 μCi) of ^52Mn^2+ was IV injected into obese mice or lean controls one hour prior to PET scan acquisition. Subsequent ^52Mn^2+ accumulation in the pancreas and other organs of interest was quantified.

[11] = rapid IV bolus, isoflurane throughout, 1 h post injection
[12] = ICR mice, IV ^52Mn^2+, awake at injection, static PET 1 h post injection

Chain of type 2 vesicular transporter (VMAT2) (Q05940 whole entry, species assumed): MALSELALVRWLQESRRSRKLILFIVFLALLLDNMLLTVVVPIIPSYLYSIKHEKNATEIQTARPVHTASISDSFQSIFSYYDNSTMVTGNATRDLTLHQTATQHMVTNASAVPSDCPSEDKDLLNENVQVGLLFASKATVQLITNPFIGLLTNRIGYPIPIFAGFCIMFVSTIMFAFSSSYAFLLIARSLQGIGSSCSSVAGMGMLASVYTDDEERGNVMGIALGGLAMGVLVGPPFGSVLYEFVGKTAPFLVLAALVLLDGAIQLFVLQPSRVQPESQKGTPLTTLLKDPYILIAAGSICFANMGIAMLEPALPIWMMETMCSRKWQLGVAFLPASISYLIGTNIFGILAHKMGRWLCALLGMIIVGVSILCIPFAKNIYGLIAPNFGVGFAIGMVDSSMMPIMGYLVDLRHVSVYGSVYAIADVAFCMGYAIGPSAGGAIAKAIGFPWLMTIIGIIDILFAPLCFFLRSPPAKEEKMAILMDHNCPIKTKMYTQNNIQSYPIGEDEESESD

COc1cc2c(cc1OCCCF)CCN1CC(CC(C)C)C(O)CC21 (stereo not drawn) [FP-(+)-DTBZ]
affinity for VMAT2 [1]: high affinity

[54Mn] [Mn-54]
blood clearance [2]: ~0.8 min

COc1cc2c(cc1O[11CH3])CCN1CC(CC(C)C)C(O)CC21 (stereo not drawn) [[^11C]-DTBZ, [^11C]-Dihydrotetrabenazine]
pancreatic uptake [3]: very low

[52Mn+2] [^52Mn^2+]
^52Mn^2+ uptake in pancreas of diabetic mice (PET ROI) ([4]; STZ (180 mg/kg) diabetic ICR mice, 1 h post injection, normal mice 5.13±0.38 SUV): 2.04±0.81 SUV | decrease in pancreatic accumulation of ^52Mn^2+, ex vivo biodistribution ([4]; STZ-diabetic vs normal ICR mice): > 58% | reduction in the pancreatic accumulation of ^52Mn^2+ ([4]; STZ-induced type-1 diabetes model vs normal): ~60% | ^52Mn^2+ uptake in the pancreas at peak [5]: 5-6 SUV | ^52Mn^2+ uptake in other organs (brain, lungs, bones, intestines, stomach, spleen) [6]: less than 0.5 SUV | ^52Mn^2+ uptake in pancreas, continuous infusion ([7]; IV infusion over 30 min, isoflurane): 3.44±0.69 SUV | ^52Mn^2+ uptake in kidney, continuous infusion ([7]; IV infusion over 30 min, isoflurane, 1 h post injection): 5.14±1.21 SUV | reduction in pancreatic uptake, dynamic vs static PET ([7]; rapid IV bolus under isoflurane vs awake injection, 1 h post injection): ~50% | time until uptake stabilized in organs of interest ([7]; rapid IV bolus, dynamic PET): within five minutes | blood circulation half-life ([7]; rapid IV bolus, from myocardial TAC of dynamic PET): 10.7 ± 3.5 s | ^52Mn^2+ uptake in heart, dynamic PET [7, 11]: 2.60±0.41 SUV | ^52Mn^2+ uptake in kidneys, dynamic PET [7, 11]: 7.81±0.51 SUV | ^52Mn^2+ uptake in liver, dynamic PET [7, 11]: 5.16±1.46 SUV | ^52Mn^2+ uptake in muscle, dynamic PET [7, 11]: 0.16±0.02 SUV | ^52Mn^2+ uptake in pancreas, dynamic PET [7, 11]: 2.74±0.59 SUV | ^52Mn^2+ uptake in heart (PET ROI) [8, 12]: 2.11±0.20 SUV | ^52Mn^2+ uptake in kidneys (PET ROI) [8, 12]: 5.13±0.02 SUV | ^52Mn^2+ uptake in liver (PET ROI) [8, 12]: 3.27±0.36 SUV and 3.27±0.34 SUV | ^52Mn^2+ uptake in muscle (PET ROI) [8, 12]: 0.38±0.03 SUV | ^52Mn^2+ uptake in pancreas (PET ROI) [8, 12]: 5.13±0.38 SUV and 5.13±0.36 SUV | ^52Mn^2+ uptake in salivary glands (PET ROI) [8, 12]: 2.30±0.26 SUV | ^52Mn^2+ uptake in salivary gland at subsequent time points ([8]; ICR mice, longitudinal PET after 1 h up to 13 days post injection): around 3 SUV | pancreas clearance half-life of ^52Mn^2+ ([8]; healthy mice, IV): approximately 8 days | ^52Mn^2+ uptake by islets under resting conditions [9]: readily taken up | ^52Mn^2+ uptake in liver, lean mice ([10]; lean C57BL/6J, 1 h): 3.40±0.73 SUV | ^52Mn^2+ uptake in salivary gland, lean mice ([10]; lean C57BL/6J, 1 h): 3.11±1.05 SUV | ^52Mn^2+ pancreatic uptake, lean mice ([10]; lean C57BL/6J, PET 1 h after administration): 4.89±0.68 SUV | ^52Mn^2+ uptake in liver, obese mice ([10]; ob/ob C57BL/6J, 1 h): 3.68±0.25 SUV | ^52Mn^2+ uptake in salivary gland, obese mice ([10]; ob/ob C57BL/6J, 1 h): 2.40±0.20 SUV | ^52Mn^2+ pancreatic uptake, ob/ob mice ([10]; pre-type 2 diabetic ob/ob C57BL/6J, PET 1 h after administration): 7.27±1.03 SUV
